Results reported in patent publication US8969554B2, “6-acyl-1,2,4-triazine-3,5-dione derivative and herbicides” (Kumiai Chemical Industry Co., Ltd., priority 2010, dated 2015).

Assays:
Format in all cases: in vivo
Echinochloa oryzicola = test: Herbicidal activity by paddy field soil treatment (Test Example 1); set-up: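 index 0 to 10 in 10% steps of herbicidal effect with 10 meaning complete death and 0 below 10%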; conditions: 1000 g of effective component per hectare, evaluated on day 21 after the treatment, criteria of Table 72
Method in brief: (§1)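 Paddy soil was watered and puddled, seeded, then flooded to 3 cm. One day later the formulation, diluted with water, went onto the water surface at 1000 g/ha of active ingredient. After 21 days in the greenhouse, effects were scored.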

Monochoria vaginalis = test: as above; set-up: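 index 0 to 10 in 10% steps of herbicidal effect with 10 meaning complete death and 0 below 10%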; conditions: 1000 g of effective component per hectare, evaluated on day 21 after the treatment, criteria of Table 72
Method in brief: as §1

Scirpus juncoides Rocxb. = test: as above; set-up: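 index 0 to 10 in 10% steps of herbicidal effect with 10 meaning complete death and 0 below 10%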; conditions: applied on water surface, 1000 g of effective component per hectare, day 21 after the treatment
Method in brief: as §1

A. retroflexus [1] = test: Herbicidal activity by field soil treatment (Test example 2); set-up: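 index 0 to 10 in 10% steps of herbicidal effect with 10 meaning complete death and 0 below 10%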; conditions: 1000 g effective component per hectare, day 21 after the treatment
Method in brief: (§2)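 Field soil filled 80 cm^2 pots; seeds were sown, covered, and the soil surface treated with a small sprayer. Dose: 1000 g/ha of active component from a water-diluted wettable powder, applied in 1000 L/ha. Greenhouse cultivation followed, with evaluation at day 21.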

Echinochloa crus-galli [2] = test: as above; set-up: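 index 0 to 10 in 10% steps of herbicidal effect with 10 meaning complete death and 0 below 10%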; conditions: 1000 g effective component per hectare, day 21 after the treatment
Method in brief: as §2

Indian millet [3] = test: as above; set-up: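 index 0 to 10 in 10% steps of herbicidal effect with 10 meaning complete death and 0 below 10%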; conditions: 1000 g effective component per hectare, day 21 after the treatment
Method in brief: as §2

foxtail = test: as above; conditions: 1000 g effective component per hectare, day 21 after the treatment;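 also: index 0 to 10 in 10% steps of herbicidal effect with 10 meaning complete death and 0 below 10%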
Description: [table] Test for Determining Herbicidal Activity by Field Soil Treatment A 80 cm^2 wide plastic pot was filled with a field soil and seeds of each of Echinochloa crus-galli, foxtail, Indian millet, and A. retroflexus were sowed and then covered with soil. The wettable powder produced with reference to the Formulation example 1 was diluted water, and applied on the soil surface by using a small sprayer in an amount of 1000 liters per hectare so that the effective component is 1000 g per hectare. After that, the plants were cultivated in a greenhouse, and on day 21 after the treatment, evaluation was made by the criteria described in Table 72 for determining the herbicidal effects.

A. retroflexus [4] = test: Herbicidal activity by field foliage treatment (Test example 3); set-up: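 index 0 to 10 in 10% steps of herbicidal effect with 10 meaning complete death and 0 below 10%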; conditions: 1000 g effective component per hectare, day 14 after the treatment
Method in brief: (§3)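 Seeds sown in field soil and kept 2 weeks in a greenhouse; foliage of the whole plant then sprayed with diluted wettable powder (1000 L/ha, 1000 g a.i./ha); plants returned to the greenhouse and scored for herbicidal effect on day 14.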

Indian millet [5] = test: as above; set-up: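 index 0 to 10 in 10% steps of herbicidal effect with 10 meaning complete death and 0 below 10%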; conditions: 1000 g effective component per hectare, day 14 after the treatment
Method in brief: as §3

Echinochloa crus-galli [6] = test: as above; set-up: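 index 0 to 10 in 10% steps of herbicidal effect with 10 meaning complete death and 0 below 10%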; conditions: 1000 g effective component per hectare, day 14 after the treatment
Method in brief: (§4)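 Herbicidal effect was rated on day 14 following a foliar spray of 1000 g active ingredient per hectare, applied as water-diluted wettable powder at 1000 L/ha. Plants had been raised for 2 weeks in field soil under greenhouse conditions before spraying.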

Setaria viridis = test: as above; conditions: 1000 g effective component per hectare, day 14 after the treatment;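 also: index 0 to 10 in 10% steps of herbicidal effect with 10 meaning complete death and 0 below 10%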
Method in brief: as §4

Structure (SMILES) | Herbicidal effects index number, Echinochloa oryzicola (Echinochloa oryzicola) | Herbicidal effects index number, Monochoria vaginalis (Monochoria vaginalis) | herbicidal effect index, S. juncoides Rocxb. (Scirpus juncoides Rocxb.) | herbicidal effect index, Amaranthus retroflexus (A. retroflexus [1]) | herbicidal effect index, Echinochloa crus-galli (Echinochloa crus-galli [2]) | herbicidal effect index, Abutilon theophrasti (Indian millet [3]) | herbicidal effect index, Setaria viridis (foxtail) | herbicidal effect index, Amaranthus retroflexus (A. retroflexus [4]) | herbicidal effect index, Abutilon theophrasti (Indian millet [5]) | herbicidal effect index, Echinochloa crus-galli (Echinochloa crus-galli [6]) | herbicidal effect index, Setaria viridis (Setaria viridis)
Cn1nc(C(=O)C2=C(O)CCCC2=O)c(=O)n(-c2ccnc(Br)c2)c1=O [I-281] | 10 | 10 | 10 | 10 | 9 | 9 | 9 | 9 | 9 | 9 | 7
Cn1nc(C(=O)C2=C(O)CCCC2=O)c(=O)n(-c2cc(Cl)cc(Cl)c2)c1=O [I-82] | 8 | 10 | 10 | 10 | 9 | 9 | 9 | 10 | 10 | 10 | 10
Cn1nc(C(=O)C2=C(O)CCCC2=O)c(=O)n(C)c1=S [I-265] | 10 | 10 | 10 | 10 | 10 | 10 | 10 | 10 | 9 | 8 | 9
COc1ccc(Cl)cc1-n1c(=O)c(C(=O)C2=C(O)CCCC2=O)nn(C)c1=O [I-134] | 10 | 10 | 10 | 10 | 10 | 10 | 10 | 10 | 10 | 10 | 10
Cn1nc(C(=O)C2=C(O)CCCC2=O)c(=O)n(N2CCCCC2)c1=O [I-304] | 10 | 10 | 10 | 10 | 10 | 10 | 9 | 10 | 9 | 10 | 10
Cn1nc(C(=O)C2=C(O)CCCC2=O)c(=O)n(-c2ccccc2Cl)c1=O [I-51] | 10 | 10 | 10 | 10 | 10 | 10 | 10 | 10 | 10 | 10 | 10
Cn1nc(C(=O)C2=C(O)CCCC2=O)c(=O)n(-c2ccccc2)c1=O [I-50, 6-(2-hydroxy-6-oxocyclohexa-1-enecarbonyl)-2-methyl-4-phenyl-1,2,4-triazine-3,5 (2H, 4H)-dione] | 10 | 10 | 10 | 10 | 10 | 10 | 10 | 10 | 10 | 10 | 10
CC1CC(C)(C)C(=O)C(C(=O)c2nn(C)c(=O)n(-c3ccccc3)c2=O)=C1O (stereo not shown) [VI-7] | 10 | 10 | 10 | 10 | 10 | 10 | 10 | 10 | 10 | 10 | 10
C=CCn1c(=O)c(C(=O)C2=C(O)CCCC2=O)nn(C)c1=O [I-11] | 10 | 10 | 10 | 10 | 10 | 9 | 7 | 10 | 9 | 9 | 9
Cn1nc(C(=O)C2=C(O)CCCC2=O)c(=O)n(-c2ccc([N+](=O)[O-])cc2)c1=O [I-68] | 10 | 10 | 10 | 10 | 10 | 10 | 10 | 10 | 10 | 10 | 8
Cc1cc(Br)ccc1-n1c(=O)c(C(=O)C2=C(O)CCCC2=O)nn(C)c1=O [I-282] | 10 | 10 | 10 | 10 | 10 | 9 | 10 | 8 | 9 | 8 | 7
